Source: ChEMBL document CHEMBL3046070, “New N-arylamino biquinoline derivatives: microwave-assisted synthesis and their antimicrobial activities” (2013)
≈ marks a conversion by molar mass, not a printed value.

Experiments:
Format in all cases: functional
[1] = system: Bacillus subtilis; test: Antibacterial activity against Bacillus subtilis MTCC 441 assessed as growth inhibition after overnight incubation by NCCLS broth microdilution method
[2] = system: Streptococcus pneumoniae; test: Antibacterial activity against Streptococcus pneumoniae MTCC 1936 assessed as growth inhibition after overnight incubation by NCCLS broth microdilution method
[3] = system: Clostridium tetani; test: Antibacterial activity against Clostridium tetani MTCC 449 assessed as growth inhibition after overnight incubation by NCCLS broth microdilution method
[4] = system: Escherichia coli; test: Antibacterial activity against Escherichia coli MTCC 443 assessed as growth inhibition after overnight incubation by NCCLS broth microdilution method
[5] = system: Vibrio cholerae; test: Antibacterial activity against Vibrio cholerae MTCC 3906 assessed as growth inhibition after overnight incubation by NCCLS broth microdilution method
[6] = system: Salmonella typhi; test: Antibacterial activity against Salmonella enterica subsp. enterica serovar Typhi MTCC 98 assessed as growth inhibition after overnight incubation by NCCLS broth microdilution method
[7] = system: Candida albicans; test: Antifungal activity against Candida albicans MTCC 227 assessed as growth inhibition after overnight incubation by NCCLS broth microdilution method
[8] = system: Aspergillus fumigatus; test: Antifungal activity against Aspergillus fumigatus MTCC 3008 assessed as growth inhibition after overnight incubation by NCCLS broth microdilution method

Row | Compound | MIC [1] [µg/mL] | MIC [2] [µg/mL] | MIC [3] [µg/mL] | MIC [4] [µg/mL] | MIC [5] [µg/mL] | MIC [6] [µg/mL] | MIC [7] [µg/mL] | MIC [8] [µg/mL]
1 | CCOC(=O)C1=C(N)N(Nc2ccc(F)cc2)C2=C(C(=O)CC(C)(C)C2)C1c1cc2cc(OC)ccc2nc1Cl (centres undefined) | 200 (≈ 354 µM) | 250 (≈ 442 µM) | 250 (≈ 442 µM) | 125 (≈ 221 µM) | 250 (≈ 442 µM) | 200 (≈ 354 µM) | 1000 (≈ 1770 µM) | > 1000
2 | CCOC(=O)C1=C(N)N(Nc2ccccc2)C2=C(C(=O)CC(C)(C)C2)C1c1cc2cc(C)ccc2nc1Cl (centres undefined) | 500 (≈ 942 µM) | 250 (≈ 471 µM) | 500 (≈ 942 µM) | 100 (≈ 188 µM) | 100 (≈ 188 µM) | 250 (≈ 471 µM) | 500 (≈ 942 µM) | > 1000
3 | CC1(C)S[C@@H]2[C@H](NC(=O)[C@H](N)c3ccccc3)C(=O)N2[C@H]1C(=O)O [AMPICILLIN] | 250 (≈ 715 µM) | 100 (≈ 286 µM) | 250 (≈ 715 µM) | 100 (≈ 286 µM) | 100 (≈ 286 µM) | 100 (≈ 286 µM) | – | –
4 | CCOC(=O)C1=C(N)N(Nc2ccc(C)cc2)C2=C(C(=O)CC(C)(C)C2)C1c1cc2cc(OC)ccc2nc1Cl (centres undefined) | 200 (≈ 356 µM) | 100 (≈ 178 µM) | 125 (≈ 223 µM) | 125 (≈ 223 µM) | 500 (≈ 891 µM) | 62.5 (≈ 111 µM) | 500 (≈ 891 µM) | > 1000
5 | NYSTATIN | – | – | – | – | – | – | 100 | 100
6 | CCn1cc(C(=O)O)c(=O)c2cc(F)c(N3CCNCC3)cc21 [NORFLOXACIN] | 100 (≈ 313 µM) | 10 (≈ 31.3 µM) | 50 (≈ 157 µM) | 10 (≈ 31.3 µM) | 10 (≈ 31.3 µM) | 10 (≈ 31.3 µM) | – | –
7 | CCOC(=O)C1=C(N)N(Nc2ccc(Cl)cc2)C2=C(C(=O)CC(C)(C)C2)C1c1cc2ccccc2nc1Cl (centres undefined) | 200 (≈ 363 µM) | 200 (≈ 363 µM) | 125 (≈ 227 µM) | 200 (≈ 363 µM) | 250 (≈ 453 µM) | 250 (≈ 453 µM) | 1000 (≈ 1810 µM) | 250 (≈ 453 µM)
8 | O=C(O)c1cn(C2CC2)c2cc(N3CCNCC3)c(F)cc2c1=O [CIPROFLOXACIN] | – | 50 (≈ 151 µM) | – | 25 (≈ 75.4 µM) | 25 (≈ 75.4 µM) | 25 (≈ 75.4 µM) | – | –
9 | CCOC(=O)C1=C(N)N(Nc2ccc(OC)cc2)C2=C(C(=O)CC(C)(C)C2)C1c1cc2cc(Cl)ccc2nc1Cl (centres undefined) | 500 (≈ 860 µM) | 500 (≈ 860 µM) | 250 (≈ 430 µM) | 250 (≈ 430 µM) | 250 (≈ 430 µM) | 250 (≈ 430 µM) | 1000 (≈ 1720 µM) | > 1000
10 | CCOC(=O)C1=C(N)N(Nc2ccc(Cl)cc2)C2=C(C(=O)CC(C)(C)C2)C1c1cc2cc(Cl)ccc2nc1Cl (centres undefined) | 500 (≈ 853 µM) | 500 (≈ 853 µM) | 250 (≈ 427 µM) | 250 (≈ 427 µM) | 250 (≈ 427 µM) | 250 (≈ 427 µM) | 1000 (≈ 1710 µM) | 500 (≈ 853 µM)
11 | CCOC(=O)C1=C(N)N(Nc2ccc(F)cc2)C2=C(C(=O)CC(C)(C)C2)C1c1cc2cc(C)ccc2nc1Cl (centres undefined) | 200 (≈ 364 µM) | 200 (≈ 364 µM) | 100 (≈ 182 µM) | 100 (≈ 182 µM) | 100 (≈ 182 µM) | 200 (≈ 364 µM) | 100 (≈ 182 µM) | > 1000
12 | O=C(N[C@H](CO)[C@H](O)c1ccc([N+](=O)[O-])cc1)C(Cl)Cl [CHLORAMPHENICOL] | 50 (≈ 155 µM) | 50 (≈ 155 µM) | 50 (≈ 155 µM) | 50 (≈ 155 µM) | 50 (≈ 155 µM) | 50 (≈ 155 µM) | – | –
13 | CCOC(=O)C1=C(N)N(Nc2ccc(C)cc2)C2=C(C(=O)CC(C)(C)C2)C1c1cc2cc(Cl)ccc2nc1Cl (centres undefined) | 250 (≈ 442 µM) | 100 (≈ 177 µM) | 500 (≈ 884 µM) | 500 (≈ 884 µM) | 500 (≈ 884 µM) | 500 (≈ 884 µM) | 250 (≈ 442 µM) | > 1000
14 | CCOC(=O)C1=C(N)N(Nc2ccc(OC)cc2)C2=C(C(=O)CC(C)(C)C2)C1c1cc2cc(OC)ccc2nc1Cl (centres undefined) | 250 (≈ 433 µM) | 250 (≈ 433 µM) | 250 (≈ 433 µM) | 200 (≈ 347 µM) | 250 (≈ 433 µM) | 200 (≈ 347 µM) | 1000 (≈ 1730 µM) | 500 (≈ 866 µM)
15 | GENTAMICIN | 1 | 0.5 | 5 | 0.05 | 5 | 5 | – | –
16 | CCOC(=O)C1=C(N)N(Nc2ccc(OC)cc2)C2=C(C(=O)CC(C)(C)C2)C1c1cc2cc(C)ccc2nc1Cl (centres undefined) | 250 (≈ 446 µM) | 125 (≈ 223 µM) | 250 (≈ 446 µM) | 250 (≈ 446 µM) | 250 (≈ 446 µM) | 100 (≈ 178 µM) | 250 (≈ 446 µM) | 500 (≈ 891 µM)
17 | CCOC(=O)C1=C(N)N(Nc2ccc(Br)cc2)C2=C(C(=O)CC(C)(C)C2)C1c1cc2cc(C)ccc2nc1Cl (centres undefined) | 100 (≈ 164 µM) | 250 (≈ 410 µM) | 500 (≈ 820 µM) | 500 (≈ 820 µM) | 500 (≈ 820 µM) | 500 (≈ 820 µM) | 500 (≈ 820 µM) | 1000 (≈ 1640 µM)
18 | CCOC(=O)C1=C(N)N(Nc2ccc(F)cc2)C2=C(C(=O)CC(C)(C)C2)C1c1cc2cc(Cl)ccc2nc1Cl (centres undefined) | 500 (≈ 878 µM) | 500 (≈ 878 µM) | 250 (≈ 439 µM) | 200 (≈ 351 µM) | 500 (≈ 878 µM) | 250 (≈ 439 µM) | 1000 (≈ 1760 µM) | > 1000
19 | CCOC(=O)C1=C(N)N(Nc2ccc(Br)cc2)C2=C(C(=O)CC(C)(C)C2)C1c1cc2cc(Cl)ccc2nc1Cl (centres undefined) | 200 (≈ 317 µM) | 200 (≈ 317 µM) | 250 (≈ 397 µM) | 200 (≈ 317 µM) | 250 (≈ 397 µM) | 100 (≈ 159 µM) | 500 (≈ 793 µM) | 1000 (≈ 1590 µM)
20 | CCOC(=O)C1=C(N)N(Nc2ccc(OC)cc2)C2=C(C(=O)CC(C)(C)C2)C1c1cc2ccccc2nc1Cl (centres undefined) | 250 (≈ 457 µM) | 200 (≈ 366 µM) | 100 (≈ 183 µM) | 50 (≈ 91.4 µM) | 200 (≈ 366 µM) | 200 (≈ 366 µM) | 250 (≈ 457 µM) | 500 (≈ 914 µM)
21 | CCOC(=O)C1=C(N)N(Nc2ccc(Br)cc2)C2=C(C(=O)CC(C)(C)C2)C1c1cc2ccccc2nc1Cl (centres undefined) | 250 (≈ 420 µM) | 25 (≈ 42 µM) | 500 (≈ 839 µM) | 100 (≈ 168 µM) | 500 (≈ 839 µM) | 50 (≈ 83.9 µM) | > 1000 | > 1000
22 | CCOC(=O)C1=C(N)N(Nc2ccc(C)cc2)C2=C(C(=O)CC(C)(C)C2)C1c1cc2ccccc2nc1Cl (centres undefined) | 500 (≈ 942 µM) | 250 (≈ 471 µM) | 500 (≈ 942 µM) | 250 (≈ 471 µM) | 125 (≈ 235 µM) | 250 (≈ 471 µM) | > 1000 | > 1000
23 | CCOC(=O)C1=C(N)N(Nc2ccc(F)cc2)C2=C(C(=O)CC(C)(C)C2)C1c1cc2ccccc2nc1Cl (centres undefined) | 200 (≈ 374 µM) | 200 (≈ 374 µM) | 200 (≈ 374 µM) | 100 (≈ 187 µM) | 200 (≈ 374 µM) | 100 (≈ 187 µM) | 250 (≈ 467 µM) | 500 (≈ 935 µM)
24 | CCOC(=O)C1=C(N)N(Nc2ccccc2)C2=C(C(=O)CC(C)(C)C2)C1c1cc2cc(Cl)ccc2nc1Cl (centres undefined) | 200 (≈ 363 µM) | 100 (≈ 181 µM) | 200 (≈ 363 µM) | 125 (≈ 227 µM) | 100 (≈ 181 µM) | 250 (≈ 453 µM) | 1000 (≈ 1810 µM) | 250 (≈ 453 µM)
25 | CCOC(=O)C1=C(N)N(Nc2ccc(Br)cc2)C2=C(C(=O)CC(C)(C)C2)C1c1cc2cc(OC)ccc2nc1Cl (centres undefined) | 250 (≈ 399 µM) | 250 (≈ 399 µM) | 200 (≈ 320 µM) | 200 (≈ 320 µM) | 200 (≈ 320 µM) | 200 (≈ 320 µM) | > 1000 | 500 (≈ 799 µM)
26 | COC1=CC(=O)C[C@@H](C)[C@]12Oc1c(Cl)c(OC)cc(OC)c1C2=O [GRISEOFULVIN] | – | – | – | – | – | – | 500 (≈ 1420 µM) | 100 (≈ 283 µM)
